These results are taken from patent publication US20230026856A1, “HETEROCYCLIC COMPOUNDS AND METHODS OF USE THEREOF” (SPARCBIO LLC, priority 2020, published 2023).

The target of the assay is KRAS G12C protein (Homo sapiens, UniProt P01116, G12C). Briefly: Nucleotide exchange assay, Method III (TR-FRET, association of KRAS G12C with Raf-RBD, SOS1-mediated exchange). In kind it is biochemical. As to conditions: overnight (18 hr) incubation with GDP-bound KRAS G12C. How it is done:
Method III. Inhibition of SOS1-mediated exchange of GDP for GTP on the KRAS G12C protein was measured in a biochemical assay that monitors association of KRAS G12C protein with the Ras-binding domain of Raf (Raf-RBD), where the association is coupled to exchange of GDP to GTP on the KRAS G12C protein. The assay was performed at WuXi AppTec (Shanghai, China). Compounds were serially diluted in 3-fold dilutions to 11 concentrations and spotted into the wells of an assay plate in a total volume of 150 nL DMSO per well. A 2× enzyme mix was prepared by diluting GDP-bound, His-tagged KRAS G12C to 25 nM in assay buffer. 10 μL/well of 2× enzyme mix was added to all wells, and the plate was sealed and incubated overnight (18 hr) at 23° C. 4×SOS1/GDP and 4×SOS1/GTP were prepared in assay buffer. 5 μL/well of 4×SOS1/GDP mix was added to negative control wells, 5 μL/well of 4×SOS1/GTP mix was added to the remaining wells, and the plate was further incubated at 23° C. for 1 hr. Finally, FLAG-tagged Raf-RBD is added to the reaction mixture along with a pair of FRET donor- and acceptor-conjugated antibodies specific for the FLAG-tagged Raf-RBD and His-tagged KRAS G12C proteins. A 4× Raf-RBD/Tb-anti-FLAG/D2-anti-His mix was prepared in assay buffer, and 5 μL/well of the mix was added to all wells, followed by incubation at room temperature for 2 hr. The TR-FRET signals, which increase with association of KRAS G12C and Raf-RBD, were measured on a Perkin Elmer Envision 2104 plate reader, and data were analyzed by non-linear regression to obtain IC50 values for inhibition by compounds. Table 2 includes results of the assay of Method III. ‘+++’ indicates IC50 values ≤300 nM, ‘++’ indicates IC50 values between 300 nM-3 μM, and ‘+’ indicates IC50 values ≥3 μM.

pIC50: −log10 of the molar value. Where only a bound is given, the exact number is not on record here.

A word on the pIC50: it is the IC50 on a negative log10 scale, so that one unit is a factor of ten. Read a low pIC50 as a high IC50.

KRAS G12C protein, sequence (P01116 1-188 isoform P01116-2 G12C): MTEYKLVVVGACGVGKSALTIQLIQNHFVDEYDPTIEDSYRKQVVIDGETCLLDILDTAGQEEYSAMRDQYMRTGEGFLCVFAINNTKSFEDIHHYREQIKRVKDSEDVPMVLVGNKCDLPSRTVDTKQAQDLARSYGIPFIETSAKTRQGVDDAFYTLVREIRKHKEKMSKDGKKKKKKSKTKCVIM

As for `C=CC(=O)N1CCN(c2c(S(C)(=O)=O)c(=O)n(-c3c(C)ccnc3C(C)C)c3c(F)c(-c4cccc5sc(N)nc45)c(Cl)cc23)CC1` (single isomer, unassigned) [252 (Isomer B), 4-(4-acryloylpiperazin-1-yl)-7-(2-aminobenzo[d]thiazol-4-yl)-6-chloro-8-fluoro-1-(2-isopropyl-4-methylpyridin-3-yl)-3-(methylsulfonyl)quinolin-2(1H)-one], the pIC50 is not below 6.52.

Compound `C=CC(=O)N1CCN(c2c(S(C)(=O)=O)c(=O)n(-c3c(C)ccnc3C(C)C)c3c(F)c(-c4cccc5sc(N)nc45)c(Cl)cc23)CC1` (single isomer, unassigned) [252 (Isomer C), 4-(4-acryloylpiperazin-1-yl)-7-(2-aminobenzo[d]thiazol-4-yl)-6-chloro-8-fluoro-1-(2-isopropyl-4-methylpyridin-3-yl)-3-(methylsulfonyl)quinolin-2(1H)-one] had a pIC50 of 5.52 to 6.52.

The compound `C=CC(=O)N1CCN(c2c(C(=O)NC)c(=O)n(-c3c(C)ccnc3C(C)C)c3nc(-c4cccc5sc(N)nc45)c(F)cc23)C[C@H]1C` (single isomer, unassigned) [253 (Isomer A)] had a pIC50 not below 6.52.

`C=CC(=O)N1CCN(c2c(C(=O)NC)c(=O)n(-c3c(C)ccnc3C(C)C)c3nc(-c4cccc5sc(N)nc45)c(F)cc23)CC1` (single isomer, unassigned) [254 (Isomer B), 4-(4-acryloylpiperazin-1-yl)-7-(2-aminobenzo[d]thiazol-4-yl)-6-fluoro-1-(2-isopropyl-4-methylpyridin-3-yl)-N-methyl-2-oxo-1,2-dihydro-1,8-naphthyridine-3-carboxamide] gave a pIC50 not below 6.52.

Consider `C=CC(=O)N1CCC(n2c(=O)c(=O)n(-c3c(C)ccnc3C(C)C)c3nc(-c4c(O)cccc4F)c(F)cc32)C(C)C1` (single isomer, unassigned) [294 (Isomer A), 1-(1-acryloyl-3-methylpiperidin-4-yl)-7-fluoro-6-(2-fluoro-6-hydroxyphenyl)-4-(2-isopropyl-4-methylpyridin-3-yl)-1,4-dihydropyrido[2,3-b]pyrazine-2,3-dione], for which the pIC50 was not above 5.52.

In turn, `C=CC(=O)N1CCC(n2c(=O)c(=O)n(-c3c(C)ccnc3C(C)C)c3nc(-c4c(O)cccc4F)c(F)cc32)C(C)C1` (single isomer, unassigned) [294 (Isomer E), 1-(1-acryloyl-3-methylpiperidin-4-yl)-7-fluoro-6-(2-fluoro-6-hydroxyphenyl)-4-(2-isopropyl-4-methylpyridin-3-yl)-1,4-dihydropyrido[2,3-b]pyrazine-2,3-dione] showed a pIC50 not above 5.52.

The compound `C=CC(=O)N1CCC(n2c(=O)c(=O)n(-c3c(C)ccnc3C(C)C)c3nc(-c4c(O)cccc4F)c(F)cc32)C(C)C1` (single isomer, unassigned) [294 (Isomer F), 1-(1-acryloyl-3-methylpiperidin-4-yl)-7-fluoro-6-(2-fluoro-6-hydroxyphenyl)-4-(2-isopropyl-4-methylpyridin-3-yl)-1,4-dihydropyrido[2,3-b]pyrazine-2,3-dione] showed a pIC50 of 5.52 to 6.52.
